Test results as given in patent publication US12473250B2, “Molecular design of new antibiotics and antibiotic adjuvants against MCR strains” (priority 2019, dated 2025).
≈ marks a conversion by molar mass, not a printed value.

What was measured:
[1] = system: colistin resistant MCR (−) E. Cloacae strain 7023456439; experiment: Synergy study: colistin MIC in the presence of compound; assay type: cell-based; conditions: strain 7023456439 E. Cloacae, compound at 10 μg (Table 2a: 10 ug/ml)
Summary of the method: (§1)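 After 24 hours, MIC was read as the lowest concentration without visible growth. Drugs were tested singly and in combination by CLSI broth microdilution, equal-amount colistin:LC compound mixtures serially diluted 2-fold at a fixed synergy concentration.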

[2] = system: colistin resistant MCR (−) E. Coli strains; experiment: as above; assay type: cell-based; conditions: compound at 10 μg (Table 2a: 10 ug/ml)
Summary of the method: as §1

[3] = system: colistin resistant MCR (+) E. Coli strains; experiment: as above; assay type: cell-based; conditions: against mcr-1 bacteria; in words
Summary of the method: as §1

[4] = system: Gram positive bacteria (SA and MRSA strains); experiment: Antimicrobial effect on Gram positive bacteria (Table 8); assay type: cell-based; parameters: key to antimicrobial effect on Gram positive bacteria: MIC (concentration giving 99% inhibition), concentrations in μg; conditions: compound alone
Method: MIC experiments of the antimicrobial agents were determined by a modified broth microdilution method in accordance with the Clinical and Laboratory Standards Institute (CLSI) guidelines using 96 well culture plates. In brief, serial dilutions of all plates were prepared at different concentrations (μg). The inoculum suspension was prepared by adding isolated colonies from a 18-20 hours on TSA plate into phosphate buffer (0.31 mM, pH 7.2) or in water for injection (BBraun) and adjusting the suspension to a turbidity equivalent to 0.5 McFarland Standard. Each well contained a final bacterial concentration of approximately 5×10^5 colony forming units (CFU)/mL. The plate was covered and incubated at 35° C. for 24 hours. […] For the microdilution plates, turbidity in wells can be measured at OD600 using TECAN infinite M200Pro. MIC was determined as […] concentration that gives a 99 percent inhibition.
The antimicrobial activity of the inventive combination was also tested against Gram positive bacteria, including the multi-drug resistant strains, such as MRSA. […] This means the combination of LC100/LC101 with colistin has broad antimicrobial spectrum, being active against both Gram positive and Gram negative bacteria.

[5] = system: colistin resistant MCR (−) E. Cloacae strain 7023456439; experiment: MIC, broth microdilution, compound alone; assay type: cell-based; conditions: strain 7023456439 E. Cloacae
Summary of the method: (§2)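 Wells held ~5×10^5 CFU/mL of bacteria prepared to 0.5 McFarland from overnight TSA colonies and exposed to serially diluted agents, following modified CLSI microdilution. After 24 h at 35 °C, growth judged by turbidity (OD600 possible); 99% inhibition sets the MIC.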

[6] = system: colistin resistant MCR (−) E. Coli strains; experiment: MIC, broth microdilution, compound alone; assay type: cell-based
Summary of the method: as §2

[7] = system: colistin resistant MCR (+) E. Coli strains; experiment: MIC, broth microdilution, compound alone; assay type: cell-based; conditions: compound alone
Summary of the method: as §2

[8] = Calcein leakage from large unilamellar vesicles; conditions: vesicles of 100 nm, DOPE/DOPG=3/1
Source text: FIG. 20 refers to a graph showing calcein leakage of LC100 and LC101 using large unilamellar vesicles of 100 nm. The lipid composition of the vesicle is DOPE/DOPG=3/1, mimicking the bacterial inner membrane. […] Further increase of LC100 or LC101 leads to decrease in the florescence because of a fluorescence quenching effect.

[9] = system: 6083655967 [MCR 1+; E.Coli]; experiment: Synergistic study between LC100 or LC101 with B2088; assay type: cell-based; conditions: for Combination MIC: strain 6083655967, value of each component
Method: The MICs of the individual drugs and LC compound in combinations were determined using the broth microdilution technique as recommended by the CLSI whereby the two anti-microbial agents were added in an equal amount. (e.g.: 50 μL of Colistin: 50 μL of LC compounds). Diluted media containing compounds and antibiotics will be serially diluted 2-fold, and LC compounds and antibiotics alone or in combination will be assayed at fixed synergy concentration. In all cases, the lowest concentration at which no visible growth occurred was be recorded to be the MIC value of individual and combined antibacterial agents. The results were obtained after 24 hours of incubation.
Using the combination of LC100 and colistin, the activity of a broad range of strains was further tested (Table 7).

COC(=O)C(CCCNC(=N)N)NC(=O)COc1ccc(/C=C/C(=O)c2ccc(OCC(=O)NC(CCCNC(=N)N)C(=O)OC)c(CC=C(C)C)c2O)cc1 (stereo not drawn) [LC101]
Colistin MIC in the presence of the compound [1]: >12.5 µg/mL | Colistin MIC in the presence of the compound ([2]; strain 6083672926, MCR(−)): <0.195 µg/mL | Colistin MIC in the presence of the compound ([2]; strain 7023446108, MCR(−)): <0.195 µg/mL | Colistin MIC in the presence of the compound ([2]; strain 7033607097, MCR(−)): <0.195 µg/mL | synergy with colistin [3]: excellent synergy | activity against Gram positive strains ([4]; in words): good activity | antimicrobial effect on Gram positive bacteria ([4]; strain MRSA ATCC 43300): 6.25 | antimicrobial effect on Gram positive bacteria ([4]; strain MRSA ATCC 700699): 6.25 | antimicrobial effect on Gram positive bacteria ([4]; strain MRSA DM 21455): 3.125 | antimicrobial effect on Gram positive bacteria ([4]; strain SA ATCC 6538): 3.125 | antimicrobial effect on Gram positive bacteria ([4]; strain SA ATCC 29213): 3.125 | antimicrobial effect on Gram positive bacteria ([4]; strain SA DM 4400R): 3.125 | MIC [5]: >50 µg/mL | MIC ([6]; strain 6083672926, MCR (−)): 25 µg/mL (≈ 32 µM) | MIC ([6]; strain 7023446108, MCR (−)): 25 µg/mL (≈ 32 µM) | MIC ([6]; strain 7033607097, MCR (−)): 50 µg/mL (≈ 64 µM) | MIC ([7]; strain 6075066346, MCR (+)): 25 µg/mL (≈ 32 µM) | MIC ([7]; strain 6083655967, MCR (+)): 25 µg/mL (≈ 32 µM) | MIC ([7]; strain 6103645107, MCR (+)): 25 µg/mL (≈ 32 µM) | MIC ([7]; strain 6123520276, MCR (+)): 50 µg/mL (≈ 64 µM) | MIC ([7]; strain 7013177695, MCR (+)): 25 µg/mL (≈ 32 µM) | MIC ([7]; strain 7023436560, MCR (+)): 25 µg/mL (≈ 32 µM) | MIC ([7]; strain 7023444207, MCR (+)): 25 µg/mL (≈ 32 µM) | calcein leakage / disruption of vesicles [8]: significant florescence was detected | Combination MIC ([9]; combination B2088 (Ac) + LC 101): 2 µg/mL | Combination MIC ([9]; combination B2088 + LC 101): 2 µg/mL | level of synergistic effect with B2088 ([9]; killing E. coli with the mcr-1 mutation): 1 µg/mL
